This note sets out measurements from patent publication US20130030055A1, “COMPOSITIONS AND METHODS FOR TREATING HAIR LOSS, HAIR THINNING, AND HAIR COLOR LOSS” (priority 2010, published 2013).

Format in all cases: in vivo, human
Series [1] can be described thus: Randomized vehicle-controlled study: intraocular pressure. The following applies: eye as sampling unit. As to the method:
(§1) Safety measurements collected during this study included adverse events, ophthalmic examination variables (iris color, IOP, visual acuity, biomicroscopy, and ophthalmoscopy), physical examination, vital signs, and pregnancy testing.
Iris color was recorded for each subject at every study visit. Iris color was grouped as light (blue, blue-gray, blue/gray-brown, green, green-brown, hazel, and other) and dark (brown and dark brown). If the “other” category contained black in the description, it was grouped as dark. IOP (measured at approximately the same time of day at each visit), visual acuity, and biomicroscopy data were collected at screening, week 1, and months 1, 2, 3, 4, and 5. Ophthalmoscopy (dilated) was performed at screening and month 4.
IOP measurements were collected twice for each eye. If the 2 measurements differed by more than 2 mmHg, a third measurement was taken on that eye. If 2 measurements were collected, the average of the 2 was recorded as the IOP for a particular eye; if a third measurement was collected, the median measurement was recorded as the IOP for that eye. As all subjects were treated bilaterally, the average of the subject's right and left eye IOP values was analyzed for each time point. In the case where data were collected for only 1 eye, the collected data served as the IOP for the subject at that time point. […] Within-group changes from baseline were analyzed by the paired t-test. All analyses were based on observed cases and no data imputations were performed.
All adverse events were summarized and analyzed by the following subgroups: age (<45, 45 to 65, and >65 years), gender, and race (Caucasian and non-Caucasian). This was performed for both the treatment and posttreatment periods. Analyses of IOP were stratified by 3 subgroups, according to baseline IOP (8 to 12 mm Hg, >12 to 15 mm Hg, and >15 mm Hg). These ranges were determined by taking the bottom tercile, middle tercile, and the top tercile of baseline IOPs. The sampling unit was the “eye” (ie, each subject contributed 2 data points). Within each of the subgroups, the number and percent of subjects with an IOP of ≦6 mmHg was summarized by treatment group and visit utilizing a frequency table and was analyzed by the Pearson's chi-square test or Fisher's exact tables for 2-by-2 tables for each visit. The sampling unit was the eye and not the subject. In addition, a scatterplot of baseline IOP versus final IOP for each treatment group was presented for the treatment period and post-treatment period.

The nature of series [2]: Randomized vehicle-controlled study: adverse events. As to the method:
as §1
Safety data (adverse events, ophthalmic examination variables, physical examination, and vital signs variables) were summarized by descriptive statistics and/or frequency tables and were analyzed by appropriate nonparametric statistical methods (Pearson's chi-square test, Wilcoxon rank sum test) and/or parametric tests (ANOVA, t-test). The safety analyses were based on the safety population. No data imputation for missing visits or values was performed.

The next series deals with eyelashes. As to the kind of experiment: Randomized vehicle-controlled study: digital image analysis of eyelash length, thickness/fullness, darkness. The following applies: week 16; p<0.0001 vs vehicle. From the text:
The primary efficacy variable was the change in GEA score from the baseline measurement to the month 4 (week 16) measurement. A clinical success was defined as at least a 1-grade increase from baseline. […] The digital image analysis was based on standardized equipment and subject preparation. Digital image analysis is a photographic process developed and performed by Canfield Scientific, Inc. The details regarding these processes are maintained by Canfield Scientific, Inc. and are available upon request. The information describing software and technical processes of digital image analysis is maintained in standard operating procedures (SOPs) and work instruction manuals on file at Canfield Scientific, Inc. Upper eyelash length was measured within a defined eyelash boundary for each eye, known as the full area of interest (AOI). For the digital image, the computer software divided the full AOI image into a series of 25 vertical pixel segments. Within each segment, the maximum upper eyelash length (defined as the maximum height of each segment) was measured in pixels. The mean number of pixels over all segments represented the upper eyelash length and was computed for each digital image across both eyes. Upper eyelash length was additionally measured in terms of millimeters (mm). […] Upper eyelash thickness/fullness was measured within 3 preset rectangular areas (proximal, medial, and distal, each 300×25 pixels) positioned at fixed distances from a standardized point on the eyelash margin. […] Eyelash thickness/fullness was assessed across both eyes as an average of the 3 rectangular areas (i.e., average progressive eyelash thickness), individually for the 3 areas (proximal, medial, and distal), within the full AOI, and within the spline (a narrow area approximately 5 pixels wide, bisecting the AOI). Upper eyelash thickness/fullness was additionally measured in terms of mm2. […] Upper eyelash darkness was determined by lash intensity of the upper eyelash area within the spline. […] Eyelash intensity was calculated within the full AOI and within the spline. […]

`CCNC(=O)CCC/C=C\C[C@@H]1[C@@H](/C=C/[C@@H](O)CCc2ccccc2)[C@H](O)C[C@@H]1O` [bimatoprost]: the “Intraocular pressure, Max” value in series [1] (Week 12) is recorded as 3.5 mmHg; in series [1] (Week 16), 6.0 mmHg; in series [1] (Week 20 (post-treatment)), 5.0 mmHg. In addition, the “Intraocular pressure, Median” value in series [1] (Week 12) is recorded as −1.25 mmHg; in series [1] (Week 16) it was −1.50 mmHg; in series [1] (Week 20 (post-treatment)) it was −0.50 mmHg. The “Intraocular pressure, Min” value is −7.0 mmHg in series [1] (Week 12), −7.5 mmHg in series [1] (Week 16) and −7.5 mmHg in series [1] (Week 20 (post-treatment)). Also, the “Intraocular pressure, Mean” value in series [1] (Week 12, N 252) is given as −1.54 mmHg; in series [1] (Week 16, N 252) it was −1.25 mmHg; in series [1] (Week 20 (post-treatment), N 262), −0.67 mmHg. Also, in series [2] (5/137, 0.03% solution once daily for 4 months), the “Subjects reporting conjunctival hyperemia as an adverse event” value stood at 3.6%. The “Overall safety and tolerability” value in series [2] (healthy adult subjects) is “safe and well-tolerated”. The “Mean change from baseline in eyelash darkness, as darker eyelashes” value in the series on eyelashes is 18%. Besides, in the series with eyelashes, the “Mean change from baseline in eyelash length, as increase in length” value turned out to be 25%. Further, the “Mean change from baseline in eyelash thickness/fullness, as increase” value in the series with eyelashes is reported as 106%.
